Measurements reported in patent US11174253B2, “Compound and pharmaceutical composition containing the same” (ALPHALA CO., LTD., priority 2017, dated 2021).

Each compound was assayed on hepatocellular carcinoma cell line Hep3B (assay: Growth inhibition of Hep3B cells, 48 hr treatment, Hoechst 33342 nucleus count (GE InCell 2200)). Details: Homo sapiens, Table 1, ratio of number of tumor cells treated with 10 μM compound to non-treated cells.
Type: cell-based
Method in brief: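 Compound exposure lasted 48 hr at 37° C, 5% CO2. Surviving nuclei were counted after Hoechst 33342 staining, and survival was expressed as the treated/non-treated cell number ratio, including the ratio at 10 μM compound.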

In the case of `CCOc1ccc(-c2nnc(N(C)C(=O)Cc3ccc4nc(N)sc4c3)s2)c(OCC)c1` [Compound 1-36, 2-(2-aminobenzo[d]thiazol-6-yl)-N-(5-(2,4-diethoxyphenyl)-1,3,4-thiadiazol-2-yl)-N-methylacetamide], the viability at 10 µM is reported as 53%.

Same assay, conditions: Homo sapiens, Table 2, ratio of number of tumor cells treated with 10 μM compound to non-treated cells

With `Nc1nc2ccc(CC(=O)Nc3nnc(-c4ccccc4OC(F)(F)F)o3)cc2s1` [Compound 2-4, 2-(2-aminobenzo[d]thiazol-6-yl)-N-(5-(2-(trifluoromethoxy)phenyl)-1,3,4-oxadiazol-2-yl)acetamide] the viability at 10 µM was 88%.

Same assay, conditions: Homo sapiens, Table 3, ratio of number of tumor cells treated with 10 μM compound to non-treated cells

In the case of `Cc1ccc(-c2nc(NC(=O)Cc3ccc4nc(N)sc4c3)sc2-c2cc(C(F)(F)F)cc(C(F)(F)F)c2)cc1` [Compound 3-7, 2-(2-aminobenzo[d]thiazol-6-yl)-N-(5-(3,5-bis(trifluoromethyl)phenyl)-4-(p-tolyl)thiazol-2-yl)acetamide], the viability at 10 µM is reported as 78%.

Same assay, conditions: Homo sapiens, Table 4, ratio of number of tumor cells treated with 10 μM compound to non-treated cells

For `CCOc1ccc(-c2cnc(NC(=O)Cc3ccc4nc(N)sc4c3)[nH]2)c(OCC)c1` [Compound 4-4, 2-(2-aminobenzo[d]thiazol-6-yl)-N-(5-(2,4-diethoxyphenyl)-1H-imidazol-2-yl)acetamide], the viability at 10 µM was 40%.

Same assay, conditions: Homo sapiens, Table 5, ratio of number of tumor cells treated with 10 μM compound to non-treated cells

Point of comparison: `CCCCc1ccc(-c2nc(NC(=O)c3ccc([N+](=O)[O-])s3)sc2Oc2ccccc2)cc1` [Compound 5-79, N-(4-(4-butylphenyl)-5-phenoxythiazol-2-yl)-5-nitrothiophene-2-carboxamide], viability at 10 µM 31%. Against it:
- O=C(Nc1nc(-c2ccc([N+](=O)[O-])cc2)c(Oc2ccccc2)s1)c1ccc([N+](=O)[O-])s1 [Compound 5-60, 5-nitro-N-(4-(4-nitrophenyl)-5-phenoxythiazol-2-yl)thiophene-2-carboxamide] — higher, 38%
- CCCCOc1ccc(-c2nc(NC(=O)c3ccc([N+](=O)[O-])s3)sc2Oc2ccc(C(C)(C)C)cc2)cc1 [Compound 5-90, N-(4-(4-butoxyphenyl)-5-(4-(tert-butyl)phenoxy)thiazol-2-yl)-5-nitrothiophene-2-carboxamide] — higher, 48%
- CCCOc1ccc(-c2nc(NC(=O)c3ccc([N+](=O)[O-])s3)sc2Oc2ccc(F)cc2Cl)cc1 [Compound 5-45, N-(5-(2-chloro-4-fluorophenoxy)-4-(4-propoxyphenyl)thiazol-2-yl)-5-nitrothiophene-2-carboxamide] — lower, 28%
- CCOc1ccc(-c2nc(NC(=O)c3ccc([N+](=O)[O-])s3)sc2Oc2ccccc2F)cc1 [Compound 5-57, N-(4-(4-ethoxyphenyl)-5-(2-fluorophenoxy)thiazol-2-yl)-5-nitrothiophene-2-carboxamide] — higher, 43%
- O=C(Nc1nc(-c2cccc([N+](=O)[O-])c2)c(Oc2ccccc2)s1)c1ccc([N+](=O)[O-])s1 [Compound 5-3, 5-nitro-N-(4-(3-nitrophenyl)-5-phenoxythiazol-2-yl)thiophene-2-carboxamide] — higher, 82%
- CCCCOc1ccc(-c2nc(NC(=O)c3ccc([N+](=O)[O-])s3)sc2Oc2ccc(C#N)cc2)cc1 [Compound 5-91, N-(4-(4-butoxyphenyl)-5-(4-cyanophenoxy)thiazol-2-yl)-5-nitrothiophene-2-carboxamide] — higher, 46%
- CCCCOc1ccc(-c2nc(NC(=O)c3ccc([N+](=O)[O-])s3)sc2Oc2ccc(C(C)(C)CC)cc2)cc1 [Compound 5-98, N-(4-(4-butoxyphenyl)-5-(4-(tert-pentyl)phenoxy)thiazol-2-yl)-5-nitrothiophene-2-carboxamide] — higher, 50%
- COc1cc(-c2nc(NC(=O)c3ccc([N+](=O)[O-])s3)sc2Oc2ccccc2)cc(OC)c1OC [Compound 5-61, 5-nitro-N-(5-phenoxy-4-(3,4,5-trimethoxyphenyl)thiazol-2-yl)thiophene-2-carboxamide] — higher, 59%
- CCCOc1ccc(Oc2sc(NC(=O)c3ccc([N+](=O)[O-])s3)nc2-c2ccc(C(C)(C)C)cc2)cc1 [Compound 5-95, N-(4-(4-(tert-butyl)phenyl)-5-(4-propoxyphenoxy)thiazol-2-yl)-5-nitrothiophene-2-carboxamide] — higher, 38%
- CCCCOc1ccc(-c2nc(NC(=O)c3ccc([N+](=O)[O-])s3)sc2Oc2ccc(CCC)cc2)cc1 [Compound 5-93, N-(4-(4-butoxyphenyl)-5-(4-propylphenoxy)thiazol-2-yl)-5-nitrothiophene-2-carboxamide] — higher, 45%
- O=C(Nc1nc(-c2ccc(Br)s2)c(Oc2ccccc2)s1)c1ccc([N+](=O)[O-])s1 [Compound 5-42, N-(4-(5-bromothiophen-2-yl)-5-phenoxythiazol-2-yl)-5-nitrothiophene-2-carboxamide] — higher, 55%
- CCCc1ccc(Oc2sc(NC(=O)c3ccc([N+](=O)[O-])s3)nc2-c2ccc(C(C)(C)C)cc2)cc1 [Compound 5-88, N-(4-(4-(tert-butyl)phenyl)-5-(4-propylphenoxy)thiazol-2-yl)-5-nitrothiophene-2-carboxamide] — higher, 36%
- COCCOc1ccc(-c2nc(NC(=O)c3ccc([N+](=O)[O-])s3)sc2Oc2cccnc2)cc1 [Compound 5-15, N-(4-(4-(2-methoxyethoxy)phenyl)-5-(pyridin-3-yloxy)thiazol-2-yl)-5-nitrothiophene-2-carboxamide] — higher, 54%

Same assay, conditions: Homo sapiens, Table 6, ratio of number of tumor cells treated with 10 μM compound to non-treated cells

Point of comparison: `CC(C)(C)c1ccc(-c2nc(NC(=O)c3ccc([N+](=O)[O-])s3)sc2-c2cc(F)c(F)c(F)c2)cc1` [Compound 6-51, N-(4-(4-(tert-butyl)phenyl)-5-(3,4,5-trifluorophenyl)thiazol-2-yl)-5-nitrothiophene-2-carboxamide], viability at 10 µM 50%. Against it:
- CCOc1ccc(-c2nc(NC(=O)c3ccc([N+](=O)[O-])o3)sc2Cc2ccccc2)cc1 [Compound 6-33, N-(5-benzyl-4-(4-ethoxyphenyl)thiazol-2-yl)-5-nitrofuran-2-carboxamide] — lower, 27%
- O=C(Nc1nc(-c2ccccc2[N+](=O)[O-])cs1)c1ccc([N+](=O)[O-])s1 [Compound 6-11, 5-nitro-N-(4-(2-nitrophenyl)thiazol-2-yl)thiophene-2-carboxamide] — higher, 62%
- COc1ccc(-c2sc(NC(=O)c3ccc([N+](=O)[O-])s3)nc2-c2ccc(C)cc2)cc1OC [Compound 6-4, N-(5-(3,4-dimethoxyphenyl)-4-(p-tolyl)thiazol-2-yl)-5-nitrothiophene-2-carboxamide] — higher, 64%
- O=C(Nc1nc(-c2ccc(Br)cc2)c(Br)s1)c1ccc([N+](=O)[O-])s1 [Compound 6-10, N-(5-bromo-4-(4-bromophenyl)thiazol-2-yl)-5-nitrothiophene-2-carboxamide] — the same, 50%
- CCOc1ccc(-c2nc(NC(=O)c3ccc([N+](=O)[O-])s3)sc2Br)cc1 [Compound 6-17, N-(5-bromo-4-(4-ethoxyphenyl)thiazol-2-yl)-5-nitrothiophene-2-carboxamide] — higher, 53%
- CC(C)(C)c1ccc(-c2nc(NC(=O)c3ccc([N+](=O)[O-])s3)sc2-c2cccc(F)c2)cc1 [Compound 6-41, N-(4-(4-(tert-butyl)phenyl)-5-(3-fluorophenyl)thiazol-2-yl)-5-nitrothiophene-2-carboxamide] — lower, 36%
- CC(C)(C)c1ccc(-c2nc(NC(=O)c3ccc([N+](=O)[O-])s3)sc2-c2c(F)cc(F)cc2F)cc1 [Compound 6-52, N-(4-(4-(tert-butyl)phenyl)-5-(2,4,6-trifluorophenyl)thiazol-2-yl)-5-nitrothiophene-2-carboxamide] — lower, 37%
- CCCOc1ccc(-c2nc(NC(=O)c3ccc([N+](=O)[O-])s3)sc2N2CCN(C)CC2)cc1 [Compound 6-22, N-(5-(4-methylpiperazin-1-yl)-4-(4-propoxyphenyl)thiazol-2-yl)-5-nitrothiophene-2-carboxamide] — lower, 29%
- CC(C)(C)c1ccc(-c2nc(NC(=O)c3ccc([N+](=O)[O-])s3)sc2C(=O)N2CCOCC2)cc1 [Compound 6-49, N-(4-(4-(tert-butyl)phenyl)-5-(morpholine-4-carbonyl)thiazol-2-yl)-5-nitrothiophene-2-carboxamide] — higher, 57%
- CCCOc1ccc(-c2nc(NC(=O)c3ccc([N+](=O)[O-])s3)sc2C(=O)OCC)cc1 [Compound 6-23, ethyl 2-(5-nitrothiophene-2-carboxamido)-4-(4-propoxyphenyl)thiazole-5-carboxylate] — lower, 33%
- CC(C)(C)c1ccc(-c2nc(NC(=O)c3ccc([N+](=O)[O-])s3)sc2C(=O)NC2CC2)cc1 [Compound 6-44, 4-(4-(tert-butyl)phenyl)-N-cyclopropyl-2-(5-nitrothiophene-2-carboxamido)thiazole-5-carboxamide] — higher, 81%
- CC(C)(C)c1ccc(-c2nc(NC(=O)c3ccc([N+](=O)[O-])s3)sc2-c2ccccc2F)cc1 [Compound 6-48, N-(4-(4-(tert-butyl)phenyl)-5-(2-fluorophenyl)thiazol-2-yl)-5-nitrothiophene-2-carboxamide] — lower, 45%
- CC(C)(C)c1ccc(-c2nc(NC(=O)c3ccc([N+](=O)[O-])s3)sc2Cc2ccc(F)cc2)cc1 [Compound 6-37, N-(4-(4-(tert-butyl)phenyl)-5-(4-fluorobenzyl)thiazol-2-yl)-5-nitrothiophene-2-carboxamide] — lower, 39%
- CCCOc1ccc(-c2nc(NC(=O)c3ccc([N+](=O)[O-])s3)sc2C(=O)Nc2ccc(F)cc2F)cc1 [Compound 6-31, N-(2,4-difluorophenyl)-2-(5-nitrothiophene-2-carboxamido)-4-(4-propoxyphenyl)thiazole-5-carboxamide] — higher, 61%
- COc1cccc(-c2nc(NC(=O)c3ccc([N+](=O)[O-])s3)sc2Br)c1 [Compound 6-14, N-(5-bromo-4-(3-methoxyphenyl)thiazol-2-yl)-5-nitrothiophene-2-carboxamide] — higher, 83%
